{"source": "patent US20100317575A1", "about": "“PHARMACEUTICAL COMPOSITION COMPRISING A PYRAZOLE-O-GLUCOSIDE DERIVATIVE” (BOEHRINGER INGELHEIM INTERNATIONAL GMBH, priority 2007, published 2010)", "key": {"the diabetic": {"test_system": "the diabetic", "details": "metformin on its own; cited from earlier work"}, "[1]": {"test_system": "Male Zucker Diabetic Fatty (ZDF) rats (ZDF/Crl-Lepr^fa)", "assay": "HbA1c on day 37 of treatment in ZDF rats", "assay_type": "in vivo, rat", "details": "overnight fasted", "protocol": "All experimental protocols concerning the use of laboratory animals are reviewed by a federal Ethics Committee and approved by governmental authorities. Male Zucker Diabetic Fatty (ZDF) rats (ZDF/Crl-Lepr^fa) at the age of 12 weeks are treated for 5 weeks with the pyrazole-O-glucoside (16), i.e. 4-(2-fluoro-4-methoxy-benzyl)-1-isopropyl-5-methyl-3-β-D-glucopyranos-1-yloxy-1H-pyrazole, at a dose of 10 mg/kg administered twice daily in the morning and evening, or with metformin at a dose of 200 mg/kg once daily in the morning, or with the combination of the pyrazole-O-glucoside and metformin at the same dose regimens. Vehicle for administration is 0.5% aqueous hydroxyethylcellulose containing 0.015% Polysorbat 80. Control animals are dosed twice daily with vehicle alone. Blood samples are obtained by tail bleed. Blood glucose is measured with a glucometer and HbA1c is measured with an automated analyzer (Cobas Integra 400, Roche). Prior to start of treatment, the animals are randomized for blood glucose and HbA1c (n=10/group).\nOn day 37 of treatment, HbA1c is measured pre-dose in tail blood obtained from overnight fasted animals. The data are presented as mean±SEM."}, "[2]": {"test_system": "Male Zucker Diabetic Fatty (ZDF) rats (ZDF/Crl-Lepr^fa)", "assay": "Blood glucose AUC 0-7 h on day 20 of treatment in ZDF rats", "assay_type": "in vivo, rat", "protocol": "All experimental protocols concerning the use of laboratory animals are reviewed by a federal Ethics Committee and approved by governmental authorities. […] Control animals are dosed twice daily with vehicle alone. Blood samples are obtained by tail bleed. Blood glucose is measured with a glucometer and HbA1c is measured with an automated analyzer (Cobas Integra 400, Roche). Prior to start of treatment, the animals are randomized for blood glucose and HbA1c (n=10/group). On day 20 of treatment, blood glucose is measured in tail blood pre-dose, 0.5 h, 1.5 h, 3 h, and 7 h after dosing. Blood glucose is quantified by calculating the total glucose AUC 0-7 h. The data are presented as mean±SEM. The two-sided unpaired Student t-test is used for statistical comparison of the control group and the active groups."}}, "data": [{"smiles": "CN(C)C(=N)N=C(N)N", "note": "[Metformin, metformin]", "values": [{"measurement": "average improvement in the HbA1c value", "setting": "the diabetic", "result": "1.0-1.5%"}, {"measurement": "reduction of HbA1c (numerically) versus control", "setting": "[1]; metformin 200 mg/kg once daily", "result": 0.3, "unit": "%"}, {"measurement": "reduction of total glucose AUC 0-7 h versus control", "setting": "[2]; metformin 200 mg/kg once daily", "result": 11, "unit": "%"}]}, {"smiles": "COc1ccc(Cc2c(O[C@@H]3O[C@H](CO)[C@@H](O)[C@H](O)[C@H]3O)nn(C(C)C)c2C)c(F)c1", "note": "[(16), 4-(2-fluoro-4-methoxy-benzyl)-1-isopropyl-5-methyl-3-β-D-glucopyranos-1-yloxy-1H-pyrazole]", "values": [{"measurement": "reduction of HbA1c (numerically) versus control", "setting": "[1]; 10 mg/kg twice daily", "result": 2.1, "unit": "%"}, {"measurement": "reduction of total glucose AUC 0-7 h versus control", "setting": "[2]; 10 mg/kg twice daily", "result": 38, "unit": "%"}]}]}
